Source: PMC6669322, “Small Molecule Binding to Alzheimer Risk Factor CD33 Promotes Aβ Phagocytosis” (iScience, 2019)

System: differentiated THP-1 cells
Assay: THP-1 phagocytosis assay (pHrodo E. coli BioParticles), wild-type cells
Type: cell-based, human
Details: 30 min pre-treatment, in words
Source text: Having shown that P22 binds specifically to the sialic acid-binding site of this domain we now have a chemical tool to answer the question of whether the sialic acid-binding site is the appropriate target for small molecule ligands that might promote Aβ uptake. Siglecs preferentially recognize multivalent presentation of their ligands ([Rillahan et al., 2014], [Büll et al., 2016]), and for this reason we conjugated the biotinylated form of P22 to microparticles labeled with both FITC and streptavidin (P22 microparticles) (see Transparent Methods). More than 60% CD33-transfected BV2 cells were positive for P22 microparticles compared with only 30% cells that were only incubated with control particles (unconjugated to P22) (Figure 4A). […]
Figure 4 Effect of P22 on Phagocytosis The cells were treated with P22 conjugated to microparticles labeled with both streptavidin and fluorescein isothiocyanate (FITC), or with microparticles without P22 conjugated as control. […] (C) Quantification of phagocytic differentiated human THP-1 cells after incubation with P22 monomer, P22 conjugated microparticles, or microparticles without P22 conjugation. […]
THP-1 cells (control and CD33KO) were differentiated in growth media (RPMI 1640, 10% FCS) supplemented with 100 ng/mL PMA for 3 days. […] Differentiated cells were then lifted, counted and 75,000 cells/well were plated in a 96 well plate. […]

Cc1cc(C(=O)NC[C@@H](O)[C@@H](O)[C@@H]2O[C@@](OC[C@H]3O[C@@H](O[C@H]4[C@H](O)[C@@H](O)[C@H](OCCN)O[C@@H]4CO)[C@H](O)[C@@H](O)[C@H]3O)(C(=O)O)C[C@H](O)[C@H]2NC(=O)Cn2cc(C3CCCCC3)nn2)cc(C)c1O [P22, β-D-Glucopyranoside, 2-aminoethyl O-[N-[2-(4-cyclohexyl-1H-1,2,3-triazol-1-yl)acetyl]-9-deoxy-9-[(4-hydroxy-3,5-dimethylbenzoyl)amino]-α-neuraminosyl] (2→6)-O-β-D-galactopyranosyl-(1→4)-]
effect on phagocytosis of E. coli BioParticles: no effect
